Entries after “also recorded” stand apart in the source; their conditions may differ.

For data set [1], the system named is cancer stem cell population (ZsGreen+) established from pancreatic cancer cell line Panc-1. Description: Screening of miRNAs: cell count (cell viability) of the cancer stem cell population after transfection. Format: cell-based, human. The note with it: miRNA 10 pmol/well, lipofectamin 2000, cells counted 48 and 72 hours later, FIG. 4. The text has this:
A cancer stem cell line was established by transducing a pancreatic cancer cell line (Panc-1) with an ODC (Ornithine Decarboxylase)-Degron system capable of visualizing low metabolism that is a property of cancer stem cells using a retrovirus vector (FIG. 1a). The base sequence coding the used ODC-Degron is as set forth in SEQ ID NO: 10. Usually, cancer stem cells are so 26s proteasome hypometabolic that they cannot degrade the introduced fluorescently labeled Ornithine Decarboxylase Degron, and thus the fluorescent protein sufficiently accumulates to provide visualization.
However, even when the ODC-degron system was introduced into the pancreatic cancer cell line Panc-1, only about 0.06% cells emitting fluorescence (green) were obtained in total. With such a small number of cancer stem cells, a series of experiments including drug screening cannot be performed. Accordingly, further enrichment of cancer stem cells provided a cancer stem cell population in which cells having observed fluorescent coloring (i.e., cancer stem cells) accounted for about 81.18% in total (FIG. 1b). The obtained cancer stem cell population was designated as ZsGreen+.
A cell suspension prepared by suspending the cancer stem cell population (ZsGreen+) in a medium (DMEM medium containing 10% by volume FBS) was seeded in each well of a 24-well plate at a density of 5000 to 10000 cells/well, followed by culture at 37° C. overnight. Thereafter, according to the lipofectamin 2000 protocol, each miRNA was transfected at 10 pmol/well, and 48 hours and 72 hours later, the cells were counted. In addition, tests were also conducted under the same condition on a case where the miRNA was not introduced (untreated group, control), a case where has-miR-34a (SEQ ID NO: 8) was used (positive control) in place of the selected miRNA, and a case where a control miRNA (SEQ ID NO: 9) was used (NC1, negative control) in place of the selected miRNA. In addition, for comparison, the non-cancer stem cell population (ZsGreen−) was used in place of the cancer stem cell population (ZsGreen+) to conduct tests under the same condition.
The ratio of the number of cells under each condition to the number of control cells into which the miRNA was not introduced (cell viability, %) was determined.

Data set [2] deals with solid tumor from the cancer stem cell population (ZsGreen+). Briefly: Mouse subcutaneous solid tumor model test. The data set is classed as in vivo, BALB/cA nude mice. The note with it: carbonate apatite nanoparticles containing the miRNA, 40 μg/dose, tail vein i.v., days 0-19; tumor excised on the 24th day. The method, then:
In 100 ml of distilled water, 0.37 g of NaHCO3, 90 μl of NaH2PO4.2H2O (1M) and 180 μl of CaCl2 (1 M) were added in this order and dissolved, and the pH was adjusted to 7.5 with 1N HCl. This was filtered through 0.2 μm diameter filter. Per 1 ml of the resultant buffer, 2 μg of miRNA and 4 μl of CaCl2 (1 M) were mixed and incubated in a water bath at 37° C. for 30 minutes. Then, spin down was performed at 15000 rpm×5 minutes. The resultant pellet was dispersed in physiological saline (containing 0.5 wt % albumin). Accordingly, a dispersion of composite particles containing the miRNA in carbonate apatite particles was obtained. The resultant dispersion was subjected to ultrasonic vibration treatment for 10 minutes just prior to testing. Note that the ultrasonic vibration treatment was performed for 10 minutes using a water bath with an ultrasonic vibration function, in which the dispersion contained in a plastic container was floated on water set to 20° C., under conditions of high frequency output of 55 W and oscillation frequency of 38 kHz. The preparation obtained in this way was immediately used for the tests described below.
Note that it is confirmed in the measurement using a scanning probe microscope that the dispersion of ultrasonic vibration treatment includes composite particles composed of carbonate apatite nanoparticles containing the miRNA having an average particle diameter of 50 nm or less. It is also confirmed that the resultant composite particles contain about 20 μg of the miRNA per 1 mg of carbonate apatite.
The cancer stem cell population (ZsGreen+) obtained in Test Example 1 was subcutaneously injected at 5×10^5 cells to the left and right backs of 6 to 8 weeks age BALB/cA nude mice (manufactured by CLEA Japan, Inc.) to produce solid tumor model mice. When the tumor reached about 20 mm^3 in size, the mice were randomly divided into an hsa-miR-136-5p administration group (hsa-miR-136-5p), an untreated group, and a negative control group (control miRNA). In the hsa-miR-136-5p administration group, the day at which the tumor reached about 20 mm^3 in size was 0th day. On the 0th, 3rd, 5th, 7th, 10th, 12th, 14th, 17th and 19th days, carbonate apatite nanoparticles containing the hsa-miR-136-5p were intravenously injected into the tail vein at 40 μg/dose in terms of the amount of hsa-miR-136-5p. In the negative control group, carbonate apatite nanoparticles containing a control miRNA (SEQ ID NO: 9) were intravenously injected into the tail vein at the same schedule and dose as those for the miRNA136-5p administration group. In the untreated group, no drug was administered. During the test period, the tumor volume on the back of the mouse (longer diameter×shorter diameter×shorter diameter×1/2) was measured over time, and on the 24th day, the tumor was excised from the mice and observed for size, and its weight was measured.
A mouse subcutaneous solid tumor model test was conducted in the same manner as in Test Example 2 except that hsa-miR-3065-3p was used in place of hsa-miR-136-5p.
A mouse subcutaneous solid tumor model test was conducted in the same manner as in Test Example 2 except that hsa-miR-181-5p was used in place of hsa-miR-136-5p.

For data set [3], the system named is human pancreatic cancer cells (Bxpc3 line). Description: Antitumor effect on human pancreatic cancer cells (1), cell count after transfection. The data set is classed as cell-based. The note with it: 10 pmol/well, FIG. 8. The method, then:
(§1) A cell suspension prepared by suspending human pancreatic cancer cells (Bxpc3 line) in D-MEM medium (containing 10% by volume FBS) was seeded in each well of a 24-well plate at 3×10^3 cells/well, followed by culture at 37° C. overnight. Thereafter, according to the lipofectamin 2000 protocol, each miRNA was transfected at 10 pmol/well, and 48 hours later, the cells were counted. In addition, tests were also conducted under the same condition on a case where the miRNA was not introduced (untreated group), a case where hsa-miR-34a (SEQ ID NO: 8) was used (positive control) in place of the miRNA, and a case where a control miRNA (SEQ ID NO: 9) was used (control miRNA, negative control) in place of the selected miRNA.

The test system of data set [4] is human pancreatic cancer cells (PSN-1 line). Briefly: Antitumor effect on human pancreatic cancer cells (2), cell count after transfection. The data set is classed as cell-based. The settings on record: 10 pmol/well, 48 hours, FIG. 9. As for the experimental part:
as §1
As to hsa-miR-136-5p, hsa-miR-3065-3p and hsa-miR-181a-5p, evaluation was performed of the antitumor effect on human pancreatic cancer cells. The specific test method is the same as that for Test Example 4 except that a PSN-1 line was used as human pancreatic cancer cells.

Data set [5] has as its system human gastric cancer cells (AGS line). Description: Antitumor effect on human gastric cancer cells, cell count after transfection. The data set is classed as cell-based. The note with it: 10 pmol/well, 48 hours, FIG. 10. As for the experimental part:
as §1
As to hsa-miR-136-5p, hsa-miR-3065-3p and hsa-miR-181a-5p, evaluation was performed of the antitumor effect on human gastric cancer cells. The specific test method is the same as that for Test Example 4 except that human gastric cancer cells (AGS line) were used as cancer cells.

Data set [6] relates to human large bowel cancer cells (DLD1 line). Description: Antitumor effect on human large bowel cancer cells, cell count after transfection. The data set is classed as cell-based. The note with it: 10 pmol/well, FIG. 11. As for the experimental part:
as §1
As to hsa-miR-136-5p, hsa-miR-3065-3p, hsa-miR-4727-5p, hsa-miR-378g, hsa-miR-181a-5p, hsa-miR-362-5p and hsa-miR-608, evaluation was performed of the antitumor effect on human large bowel cancer cells. The specific test method is the same as that for Test Example 4 except that human large bowel cancer cells (DLD1 line) were used as cancer cells, and that the cells were counted 72 hours after transfection.

In data set [7] the test system is human esophageal cancer cells (TE11 line). Description: Antitumor effect on human esophageal cancer cells, cell count after transfection. Format: cell-based. The note with it: 10 pmol/well, FIG. 12. The method, then:
as §1
As to hsa-miR-136-5p, hsa-miR-3065-3p, hsa-miR-4727-5p, hsa-miR-378g and hsa-miR-181a-5p, evaluation was performed of the antitumor effect on human esophageal cancer cells. The specific test method is the same as that for Test Example 4 except that human esophageal cancer cells (TE11 line) were used as cancer cells, and that the cells were counted 72 hours after transfection.

Setting [8] is: 72 hours, positive control hsa-miR-34a.
Where [9] appears, read: cells counted 72 hours after transfection.

With “hsa-miR-181a-5p: human-derived miR-181a-5p; base sequence set forth in SEQ ID NO: 5 as mature miRNA (AACAUUCAACGCUGUCGGUGAGU; listed as RNA, chemistry not given here; listed as Homo sapiens)”, the “proliferation inhibitory effect on cancer stem cells (cell viability)” value in data set [1] is given as “effectively suppress proliferation of cancer stem cells; also recorded: prominent proliferation inhibitory effect”. Besides, in data set [2], the “antitumor effect as compared to the untreated group and the negative control group (control miRNA)” value is reported as “remarkably higher antitumor effect”. Moreover, the antitumor effect entry in data set [3] (48 hours, positive control hsa-miR-34a) is “much better antitumor effect than that of hsa-miR-34a”; in data set [5] (positive control hsa-miR-34a) it was “much better antitumor effect than that of hsa-miR-34a; also recorded: particularly remarkable antitumor effect”; in data set [6] (setting [8]), “much better antitumor effect than that of hsa-miR-34a; also recorded: particularly remarkable antitumor effect”; in data set [7] (setting [8]), “much better antitumor effect than that of hsa-miR-34a; also recorded: particularly remarkable antitumor effect”. For the same substance, the “proliferation inhibitory effect on pancreatic cancer cells” value in data set [3] (cells counted 48 hours later) and in data set [4] was “strong proliferation inhibitory effect” each time. Besides, the “proliferation inhibitory effect on gastric cancer cells” value in data set [5] is given as “strong proliferation inhibitory effect”. The “proliferation inhibitory effect on large bowel cancer cells” value in data set [6] (setting [9]) is given as “strong proliferation inhibitory effect”. Also, in data set [7] (setting [9]), the “proliferation inhibitory effect on esophageal cancer cells” value was “strong proliferation inhibitory effect”.

The values above are taken from patent US11439657B2, “Cancer stem cell growth inhibitor using miRNA” (CancerStem Tech Inc., priority 2017, dated 2022).
